SMILES strings stand for the structures. Like-named read-outs stand apart in the source and are kept apart here.

Consider one compound from PMC5071873, “The Effects of Puerarin on Rat Ventricular Myocytes and the Potential Mechanism” (Scientific Reports, 2016).

One experiment concerns the target T1, Kv7.1 (Homo sapiens, UniProt P51787).
T1 construct: expressed in transfected cells; host or cells: HEK293
The experiment in a line: Whole-cell patch clamp of Kv7.1 currents (voltage steps) in transfected HEK293 cells. The class given is cell-based. Conditions: for IC50: HEK293, non-linear Hill fit, n = 6 each point; for Kv7.1-tail current density / Kv7.1 current density: at 40 mV; for Kv7.1-tail current density: control 10.4 ± 0.6; for Kv7.1 current density: control 24.3 ± 1.1. As to the method: (§1) The Tyrode’s solution contained (mM): 126 NaCl, 5.4 KCl, 1.8 CaCl2, 1 MgCl2, 0.33 NaH2PO4, 10 HEPES and 10 glucose, pH 7.4 (adjusted with NaOH). The Ca^2+-free Tyrode’s solution was prepared by removing CaCl2 from the Tyrode’s solution. The Kreb’s solution used for cell storage contained (mM): 70 glutamic acid, 30 KCl, 15 taurine, 0.5 MgCl2, 10 KH2PO4, 0.5 EGTA, 10 HEPES, 10 glucose, and 1% albumin, pH 7.4 (adjusted with KOH). The enzyme solution used for the rat cardiomyocyte isolation contained 0.08 g/L collagenase (type II) and 1.0 g/L BSA in Kreb’s solution. For action potential recording on cardiomyocyte, the pipette solution contained (mM): 100 potassium aspartate, 30 KCl, 1 MgCl2, 5 Mg-ATP, 5 EGTA, 5 HEPES, pH 7.3 (adjusted with KOH); the Tyrode’s solution was used as the standard bath solution. For whole-cell recording of IKs on myocytes, the pipette solution contained (mM): 125 potassium aspartate, 20 KCl, 1 MgCl2, 5 Mg-ATP, 10 EGTA, 5 HEPES, pH 7.3 (adjusted with KOH); the bath solution contained (mM): 132 NaCl, 4 KCl, 1.8 CaCl2, 1.2 MgCl2, 10 HEPES, 5 glucose, pH 7.4 (adjusted with NaOH). 3 μM nifedipine and 5 μM E-4031 were used to block the calcium current and IKr, respectively. For whole-cell recording on HEK-293 cells, the pipette solution contained (mM): 140 KCl, 2 MgCl2, 10 HEPES, 0.1 EGTA, 4 K2-ATP, pH 7.3 (adjusted with KOH); the bath solution contained (mM): 120 NaCl, 5 KCl, 1.5 CaCl2, 1 MgCl2, 10 HEPES, 10 glucose, pH 7.4 (adjusted with NaOH). For single-channel recording, the pipette solution (extracellular) contained (mM): 145 KCl, 10 HEPES, 10 glucose, pH 7.4 (adjusted with KOH); the bath solution (intracellular) contained (mM): 145 KCl, 1.2 MgCl2, 10 HEPES, 0.1 EGTA, pH 7.38 (adjusted with KOH).
Cell suspensions were transferred into a chamber on the stage of a Nikon Eclipse Ti inverted microscope (Tokyo, Japan). The whole-cell recordings were performed using isolated single ventricular myocytes. Patch electrodes were pulled from a horizontal microelectrode puller (P-1000, Sutter Instrument Co, USA) and fire polished to final tip resistance of 4.0–8.0 MΩ when filled with internal solutions. Signals were amplified with an Axopatch 200B amplifier (Axon Instruments, USA) and filtered at 1 kHz. The pCLAMP 9.0 software was used to generate current and voltage clamp protocols, acquire data, and analyse the current traces. The whole-cell series resistance was compensated to more than 80%. All of the experiments were performed at room temperature (22 ± 1 °C). The whole-cell IK1 was elicited by a ramp voltage protocol from −140 to + 40 mV in 1 s, or at a 0 mV holding potential to test potentials from −140 to + 40 mV in 10 mV increments. The IK1 was calculated as the difference between the peak inward current and the holding current level. The whole-cell Kv7.1/IKs were elicited from a −30 mV holding potential to test potentials from −80 to + 40 mV in 10 mV increments.
Human Kir2.1 cDNA, Kir2.3 cDNA, Kv7.1 cDNA and KCNE1 cDNA, was cloned in Human Embryonic Kidney 293 cells, respectively. In some cases, Kv7.1 cDNA and KCNE1 cDNA were simultaneously cloned in Human Embryonic Kidney 293 cells.

Another experiment addresses T2, Kir2.3 (Homo sapiens, UniProt P48050).
T2 sequence (P48050 1-445): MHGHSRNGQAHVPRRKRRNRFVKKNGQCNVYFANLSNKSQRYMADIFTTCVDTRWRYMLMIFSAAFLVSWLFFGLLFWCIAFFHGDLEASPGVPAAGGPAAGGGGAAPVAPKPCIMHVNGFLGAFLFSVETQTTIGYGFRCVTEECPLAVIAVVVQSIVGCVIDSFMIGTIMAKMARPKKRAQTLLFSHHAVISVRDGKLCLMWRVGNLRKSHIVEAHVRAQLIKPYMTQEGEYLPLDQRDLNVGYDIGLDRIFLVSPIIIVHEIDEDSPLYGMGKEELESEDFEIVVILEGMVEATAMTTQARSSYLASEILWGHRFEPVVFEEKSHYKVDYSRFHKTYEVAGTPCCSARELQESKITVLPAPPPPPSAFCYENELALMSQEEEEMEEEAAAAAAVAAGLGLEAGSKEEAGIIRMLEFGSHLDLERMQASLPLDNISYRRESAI
The experiment in a line: Whole-cell patch clamp of Kir2.3 currents (ramp voltage protocol) in transfected HEK-293 cells. In kind it is cell-based. As to the method: as §1, with “3 μM nifedipine and 5 μM E-4031 were used to block the calcium current and IKr, respectively. For whole-cell recording on HEK-293 cells, the pipette solution contained (mM): 140 KCl, 2 MgCl2, 10 HEPES, 0.1 EGTA, 4 K2-ATP, pH 7.3 (adjusted with KOH); the bath solution contained (mM): 120 NaCl, 5 KCl, 1.5 CaCl2, 1 MgCl2, 10 HEPES, 10 glucose, pH 7.4 (adjusted with NaOH). For single-channel recording, the pipette solution (extracellular) contained (mM): 145 KCl, 10 HEPES, 10 glucose, pH 7.4 (adjusted with KOH); the bath solution (intracellular) contained (mM): 145 KCl, 1.2 MgCl2, 10 HEPES, 0.1 EGTA, pH 7.38 (adjusted with KOH).” left out
Cell suspensions were transferred into a chamber on the stage of a Nikon Eclipse Ti inverted microscope (Tokyo, Japan). […] The IK1 was calculated as the difference between the peak inward current and the holding current level. […]

For `O=c1c(-c2ccc(O)cc2)coc2c([C@@H]3O[C@H](CO)[C@@H](O)[C@H](O)[C@H]3O)c(O)ccc12` [Puerarin, 8-c-glucoside of daidzein], the half-maximal inhibitory concentration (IC50) amounted to 36 µM at Kv7.1 (read-out: IC50, inhibition of Kv7.1 at the peak currents) and 39.8 µM on Kv7.1 (read-out: IC50, inhibition of Kv7.1 at the tail currents). The “Hill coefficient, inhibition of Kv7.1” value at Kv7.1 (non-linear Hill fit) is reported as 0.997. For the same compound, the Kv7.1-tail current density is listed as 8.8 ± 0.7 pA/pF on Kv7.1 (puerarin 10 μM), 3.8 ± 0.6 pA/pF on Kv7.1 (puerarin 100 μM), 2.5 ± 0.9 pA/pF at Kv7.1 (puerarin 1 mM) and 2.0 ± 0.5 pA/pF on Kv7.1 (puerarin 10 mM). The Kv7.1 current density turned out to be 19.1 ± 1.0 pA/pF on Kv7.1 (puerarin 10 μM), 7.9 ± 0.8 pA/pF at Kv7.1 (puerarin 100 μM), 6.1 ± 0.4 pA/pF at Kv7.1 (puerarin 1 mM) and 4.8 ± 0.8 pA/pF on Kv7.1 (puerarin 10 mM). The “effect on Kv7.1 current activated by isoproterenol, forskolin or 8-Br-cAMP” value on Kv7.1 (puerarin 100 μM) is “antagonized such activation effect”. In addition, the “effect on Kir2.3 currents at low concentrations” value at Kir2.3 (10 μM, 100 μM, 1 mM) is recorded as “less effect”. In addition, the “Hill coefficient, inhibition of Kir2.3” value on Kir2.3 (non-linear Hill fit) came out at 0.984.
